Measured values as given in patent US9427471B2, “Method and improved pharmaceutical composition for enhancing transdermal delivery of PDE-5 inhibitor” (Tritech Biopharmaceuticals Co., Ltd., priority 2011, dated 2016).

Experiments:
[1] = In vivo skin permeation analysis (applied to rabbit ear, vardenafil in blood); conditions: gel formulations (about 0.5 ml, blood drawn after 1 hour) or skin patch (6 hours) with enhancer(s) applied to left ear of rabbit, blood from right ear artery; FIG. 2
Procedure: In vivo skin permeation tests were carried out using the gel formulations of example 2.1 and the skin patch of example 2.2. Briefly, small aliquots (about 0.5 ml) of gel formulations #1 to 4 or a small piece of the skin patch (3 cm×5 cm×0.15 cm) was applied to the left ear of a rabbit, after certain period of time, 1 ml of blood was drawn from the rabbit's right ear artery and analyzed for the amount of vardenafil. Specifically, the blood was drawn after 1 hour when gel formulation was used; and 6 hours when skin patch was applied. Results are illustrated in FIG. 2.

[2] = format: in vitro ADME; conditions: Sprague-Dawley, rat, 1 % (wt %)
Procedure: The permeation test was carried out using in vitro Franz diffusion cell with a diffusion area of 0.785 cm^2. A piece of rat (Sprague-Dawley) skin tissue was mounted between the two half-cells and fastened with a clamp. Aliquots of 1% (wt %) vardenafil with or without the addition of the enhancer of this disclosure, such as 0.3% (wt %) cocamidopropyl betaine, 1% (wt %) sodium lauroamphoacetate, 1% (wt %) isostearamidopropyl morpholine lactate, 1% (wt %) quaternium-60 or dipropyl glycol, were applied to the Donor compartment to start the experiment. The receiver compartment was filled with PBS and the temperature was held at 37° C. Samples were taken at certain time intervals and assayed by HPLC.

CCCc1nc(C)c2c(=O)[nH]c(-c3cc(S(=O)(=O)N4CCN(CC)CC4)ccc3OCC)nn12 [vardenafil]
increase of the amount of vardenafil found in the blood stream as compared with control [1]: 4 to 5 folds
increase of the amount of vardenafil in the receiving side of Franz Diffusion chamber as compared with control [2]: 0.5-2 folds
